Like-named read-outs stand apart in the source and are kept apart here.

Data set [1] in a line: Precipitation seen in the spectral shift titration. In kind it is physicochemical. The settings on record: assay buffer, high concentrations. As to the method:
Therefore, measurements from the highest concentration samples had to be removed, which impaired the determination of the interpolation curve. Moreover, the signal is much smaller compared to the other studied ligands. […] This is a deviation from the theoretically found true value of 1985 nM − 2.5 nM = 1982.5 nM. The KT,2 is 2% below the EC50 value of the %Tbound, ternary curve. The apparent cooperativity of 460,000 nM/1985 nM = 232 is still below the cooperativity α of 460,000 nM/1941 = 237 (Figure 10b).
A 1:2 dilution series of all compounds (starting from the 10 mM stock concentration) was prepared in pure DMSO. Each concentration was diluted 25-fold with assay buffer (20 mM HEPES, pH 7.4, 150 mM NaCl, 1 mM DTT (all from Carl Roth, Karlsruhe, Germany), and 0.01% Pluronic F-127 (Sigma Aldrich, Taufkirchen, Germany)). Next, 10 µL from each of the prepared ligand dilutions was transferred into an empty well on a Dianthus Microwell Plate (DI-P001A). […] For all interactions measured via FKBP12, the target was prepared at a final concentration of 40 nM, supplemented with 5 nM NTA fluorophore. […] The resulting spectral shift signal (Ratio 670 nm/650 nm) was plotted against compound concentration and analyzed in the DI.Screening Analysis software, version 2.1.1.

Data set [2] deals with FKBP12:R,S-SLF-X:MAPRE1 ternary complex. Details: method as in PMID 40059881. The settings on record: TR-FRET proximity assay, reported earlier; cited from earlier work. Background: In TR-FRET formats the signal depends on donor and acceptor labels being close together.
Data set [3] deals with FKBP12 in the presence of MAPRE1 (Homo sapiens, UniProt P62942+Q15691). As to the kind of experiment: Spectral shift target engagement assay, binding to FKBP12 in the presence of 10 μM MAPRE1 (ternary). The text has this:
Our method of choice is the spectral shift method, which monitors binding events on the target isothermally and in equilibrium via an environment-sensitive near-infrared fluorophore. In the case of target engagement, either the proximity of the ligand towards the dye or structural changes occurring in the target as a result of binding lead to a change in the chemical environment of the fluorophore. Those changes affect the physiochemical properties of the reporter fluorophore and translate into either blue or red shifts (or peak broadening) of emission peaks upon ligand binding, which can be sensitively monitored by simultaneously recording the fluorescence at two wavelengths (i.e., at 650 nm and 670 nm). Calculating the ratio between the two fluorescence channels then allows to monitor subtle emission shifts that occur as a result of target engagement. Affinity measurements can then be performed by recording the spectral shift as a function of ligand concentration.
Binding studies through FKBP12: To monitor the binding of R,--SLF-11 by the stronger binding FKBP12 in the absence and in the presence of 10 μM MAPRE1 via %Cbound, binary and %Cbound, ternary, respectively, the concentration of reversibly NTA-labeled FKBP12 was limited to [Ctot] = 40 nM. […] In contrast to the experimental setup in the previous two binding experiments with monitoring through the weaker binding protein MAPRE1, where the applied protein concentrations were optimally chosen, this is not the case for the binding experiment through the stronger binder FKBP12. First of all, the applied excess of T with [Ttot] = 10 μM is roughly 20000-fold off of the proposed 100 times KT,1 threshold, which would correspond to 180 mM. Only under such excess conditions of T can the equilibrium of forming TL under the constraint that all ligand L is bound to T be reached to ensure that [Ltot] approaches the “ligand” concentration [TL]. […] If KC,2 is sufficiently high, the 20 nM deviation to correct for the protein concentration could be neglected. However, the resulting calculated value for KC,2 is 0.023 nM, accounting for the cooperativity α = 10,405 and KC,1 = 234 nM as derived by the MAPRE1 experiment. This value is far below the applied protein concentration of [Ctot] = 40 nM and makes it infeasible to estimate KC,2 from the EC50 of the %Cbound, ternary curve. Consequently, the EC50 shifts, meaning the apparent cooperativity, from monitoring the binding by the stronger binding protein C are diverging from the underlying intrinsic cooperativity α. […] The deviation of calculated (254 nM/24.2 nM = 10.5) and measured apparent cooperativity (254 nM/66 nM = 3.8) can be explained by a negative cooperativity induced by the His6-NTA tag of FKBP12. Studies to lower [Ctot] and identify a better position for the spectral shift tag on FKBP12 are ongoing (Figure 6a).
His-tagged FKBP12 was labeled using the His-Tag Labeling Kit RED-tris-NTA 2nd Generation (MO-L018; NanoTemper Technologies GmbH). The affinity between NTA dye and the His-tag of FKBP12 was determined as 7 nM. MAPRE1 was labeled using the Protein Labeling Kit RED-NHS 2nd Generation (MO-L011; NanoTemper Technologies GmbH). In brief, 10 µM of MAPRE1 was incubated with a 3-fold molar excess of fluorophore for 30 min. The unreacted fluorophore was removed by performing a size exclusion purification (B-column). Collecting the protein fraction yielded 1.8 µM labeled MAPRE1, with a degree of labeling of 0.8, as determined on a Nanodrop.
A 1:2 dilution series of all compounds (starting from the 10 mM stock concentration) was prepared in pure DMSO. Each concentration was diluted 25-fold with assay buffer (20 mM HEPES, pH 7.4, 150 mM NaCl, 1 mM DTT (all from Carl Roth, Karlsruhe, Germany), and 0.01% Pluronic F-127 (Sigma Aldrich, Taufkirchen, Germany)). Next, 10 µL from each of the prepared ligand dilutions was transferred into an empty well on a Dianthus Microwell Plate (DI-P001A). […]

Chain of FKBP12 in the presence of MAPRE1 (P62942 whole entry): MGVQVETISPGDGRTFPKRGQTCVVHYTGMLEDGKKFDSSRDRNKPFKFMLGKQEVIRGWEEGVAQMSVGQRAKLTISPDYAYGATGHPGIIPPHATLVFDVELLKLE
Chain of FKBP12 in the presence of MAPRE1 (Q15691 whole entry): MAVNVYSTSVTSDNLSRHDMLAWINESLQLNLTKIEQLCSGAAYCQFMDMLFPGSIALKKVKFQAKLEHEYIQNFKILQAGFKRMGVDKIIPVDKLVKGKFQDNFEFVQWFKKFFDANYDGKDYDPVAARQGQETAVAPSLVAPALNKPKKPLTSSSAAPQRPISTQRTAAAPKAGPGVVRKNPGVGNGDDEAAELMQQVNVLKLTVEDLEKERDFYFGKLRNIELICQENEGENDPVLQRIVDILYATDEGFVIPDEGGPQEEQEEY

As to `C=C1CCN2C(=O)COc3cccc(c3)C(CCc3ccc(OC)c(OC)c3)OC(=O)C3CCCCN3C(=O)C(=O)C(C)(C)COC(=O)C(CN)NC(=O)C2C1` (stereo not shown) [R,S-SLF-7], the precipitation result in data set [1] was “precipitation at high concentrations”. For the same molecule, the “TR-FRET Recruitment Assay (%Amax)” value in data set [2] is listed as 45%. For the same molecule, the EC50 – broadly, the midpoint of the concentration-response curve – in data set [3] (40 nM FKBP12-NTA, 10 μM MAPRE1, read-out: EC50 of the %Cbound, ternary curve (measured)) is 110 nM; in data set [3] (calculated with the model using α from MAPRE1 binding, read-out: calc EC50 of the %Cbound, ternary curve), 48 nM.

Source of the values: publication PMC11989212, “Experimental Conditions to Retrieve Intrinsic Cooperativity α Directly from Single Binding Assay Data Exemplified by the Ternary Complex Formation of FKBP12, MAPRE1 and Macrocyclic Molecular Glues” (International Journal of Molecular Sciences, 2025).
